Blank lines part the entries; values can stand above or below the molecule they belong to.
Columns and labels:
[1] = Change in mouse weight, A549 xenograft, intraperitoneal administration; assay type: in vivo, nude mouse; design: Change in mouse weight: unit not given here; details: once a day; for difference in body weight according to the administration of the drugs: day 2 to day 23
Protocol: The Tr-9 was dissolved in sterile PBS and 1 mM Tr-9 200 µℓ was intraperitoneally administered per mouse once a day, and all animals were weighed immediately before the start of drug (Tr-9) administration and 10 times in total from day 2 to day 23 after cancer cell transplantation (Table 4).
(§1) In Table 4 above, data values are the mean ± standard deviation. After measuring the body weight, the animals were killed using CO2 gas, and the tumor was separated and the size was measured in 3 directions using a vernier caliper for each animal. Then, the change in tumor size was expressed as a calculated value of (length × width × height)/2 (Table 4).

[2] = Change in mouse weight, A549 xenograft, oral administration; assay type: in vivo, nude mouse; design: Change in mouse weight: unit not given here; details: once a day; for difference in body weight according to the administration of the drugs: day 2 to day 23
Protocol: The Tr-9 was dissolved in sterile PBS and 1 mM Tr-9 200 µℓ was orally administered per mouse once a day, and all animals were weighed immediately before the start of drug (Tr-9) administration and 10 times in total from day 2 to day 23 after cancer cell transplantation (Table 1).
as §1, with “1” for “4”, “2).” for “4).”

[3] = test system: human colorectal cancer cells (HCT116); assay: Nude mouse xenograft model of human colorectal cancer cells, intraperitoneal administration; assay type: in vivo; details: for tumor size compared to the control group: after day 14
Protocol: Anticancer activity against colorectal cancer according to the intraperitoneal administration of Tr-9 was confirmed through a nude mouse xenograft model of human colorectal cancer cells (HCT116). In Example 5, Example 4 was repeated except for using colorectal cancer cells.
Specific pathogen-free (SPF) nude mice of the BALB/C strain were used as the animal model. Animals were bred in the animal room of Daedeok Campus of Hannam University maintained at a temperature of 23±3° C., relative humidity of 55±15%, ventilation frequency of 10-20 times/hr, lighting time of 12 hours(lights on at 8 am and off at 8 pm) and illuminance of 150 to 300 Lux.
For cancer cell transplantation, all cells were collected and counted on the last day of culture, and the concentration of human colorectal cancer cell line HCT116 was adjusted to 5×10^6 cells/ml using PBS. The adjusted cell culture solution was injected subcutaneously into the auxiliary region between the right scapula and chest wall at 0.2 ml (1×10^6 cells/mouse) per mouse.
The Tr-9 was dissolved in sterile PBS and 1 mM Tr-9 200 µℓ was intraperitoneally administered per mouse once a day, and all animals were weighed immediately before the start of drug (Tr-9) administration and 9 times in total from day 2 to day 21 after cancer cell transplantation (Table 7).
as §1, with “7” for “4”, “8).” for “4).”
Tumor size increase is (Δt)═ Vt—Vo, wherein Vt is the value of measuring the tumor size by date, and Vo is the value of measuring the initial tumor size.

[4] = test system: liver cancer(Hep3B) cell line; assay: WST-1 assay, cell viability of liver cancer cell line; assay type: cell-based; details: 10-100 µg/Mℓ, 24 hours, FIG. 6
Protocol: (§2) The cytotoxicity of the Tr-9 compound to six cancer cell lines was confirmed. Lung cancer(A549), gastric cancer(AGS), liver cancer(Hep3B)), breast cancer(MDA-MB-231), colorectal cancer(HCT116) and pancreatic cancer(BxPC-3) cell lines and fibroblasts were aliquoted in a 96-well plate in an amount of 5×10^3 cells/well, and the novel compound Tr-9 was treated thereto at a concentration of 10, 20, 40, 60, 80, 100 µg/Mℓ for 24 hours, respectively. Lung cancer cell line was further treated at a concentration of 100 µg/Mℓ for 24 hours, 48 hours and 72 hours.
(§3) Then, the amount of living cells was measured using WST(high sensitive Water Soluble Tetrazolium salt). WST reacts with dehydrogenase in living cells and produces orange-colored watersoluble formazan. Since dehydrogenase that reacts with WST is an enzyme present in the mitochondrial electron transport chain of metabolically active cells and is effective only in living cells, the production of formazan is proportional to the number of living cells. Therefore, the absorbance at 450 nm was measured to confirm the cell viability through the formation of formazan.

[5] = test system: breast cancer(MDA-MB-231) cell line; assay: WST-1 assay, cell viability of breast cancer cell line; assay type: cell-based; details: 10-100 µg/Mℓ, 24 hours, FIG. 5
Protocol: as §2, §3

[6] = test system: Lung cancer(A549) cell line; assay: WST-1 assay, cell viability of lung cancer cell line; assay type: cell-based, human; details: 10-100 µg/Mℓ, 24 hours, FIG. 3
Protocol: as §2, §3

[7] = test system: pancreatic cancer(BxPC-3) cell line; assay: WST-1 assay, cell viability of pancreatic cancer cell line; assay type: cell-based; details: 10-100 µg/Mℓ, 24 hours, FIG. 8
Protocol: as §2, §3

[8] = test system: Human fibroblast; assay: WST-1 assay, cell viability of fibroblasts (normal cells); assay type: cell-based; details: 10-100 µg/Mℓ, 24 hours, FIG. 9
Protocol: as §2, §3

[9] = test system: colorectal cancer(HCT116) cell line; assay: WST-1 assay, cell viability of colorectal cancer cell line; assay type: cell-based, human; details: 10-100 µg/Mℓ, 24 hours, FIG. 7
Protocol: as §2, §3

[10] = test system: gastric cancer(AGS) cell line; assay: WST-1 assay, cell viability of gastric cancer cell line; assay type: cell-based; details: 10-100 µg/Mℓ, 24 hours, FIG. 4
Protocol: as §2, §3

[11] = intraperitoneal once a day, Day 0, table title: Change in tumor size
[12] = intraperitoneal once a day, Day 2, table title: Change in tumor size
[13] = intraperitoneal once a day, Day 2, vs control
[14] = intraperitoneal once a day, Day 5, table title: Change in tumor size
[15] = intraperitoneal once a day, Day 5, vs control
[16] = intraperitoneal once a day, Day 7, table title: Change in tumor size
[17] = intraperitoneal once a day, Day 7, vs control
[18] = intraperitoneal once a day, Day 9, table title: Change in tumor size
[19] = intraperitoneal once a day, Day 9, vs control
[20] = intraperitoneal once a day, Day 11, table title: Change in tumor size
[21] = intraperitoneal once a day, Day 11, vs control
[22] = intraperitoneal once a day, Day 14, table title: Change in tumor size
[23] = intraperitoneal once a day, Day 14, vs control
[24] = intraperitoneal once a day, Day 16, table title: Change in tumor size
[25] = intraperitoneal once a day, Day 16, vs control
[26] = intraperitoneal once a day, Day 18, table title: Change in tumor size
[27] = intraperitoneal once a day, Day 18, vs control
[28] = intraperitoneal once a day, Day 21
[29] = intraperitoneal once a day, Day 21, table title: Change in tumor size
[30] = intraperitoneal once a day, Day 21, vs control

Change in mouse weight ([1]; 0 Day after drug treatment): 100.0 ±0.0 | Change in mouse weight ([1]; 2 Days after drug treatment): 98.2 ±1.5 | Change in mouse weight ([1]; 5 Days after drug treatment): 98.2 ±1.4 | Change in mouse weight ([1]; 7 Days after drug treatment): 97.6 ±1.0 | Change in mouse weight ([1]; 9 Days after drug treatment): 102.7 ±2.7 | Change in mouse weight ([1]; 12 Days after drug treatment): 101.0 ±3.1 | Change in mouse weight ([1]; 14 Days after drug treatment): 101.2 ±2.6 | Change in mouse weight ([1]; 16 Days after drug treatment): 102.3 ±3.8 | Change in mouse weight ([1]; 19 Days after drug treatment): 103.4 ±5.2 | Change in mouse weight ([1]; 21 Days after drug treatment): 102.9 ±4.1 | Change in mouse weight ([1]; 23 Days after drug treatment): 105.0 ±4.6 | Change in mouse weight ([2]; 0 Day after drug treatment): 100.0 ±0.0 | Change in mouse weight ([2]; 2 Days after drug treatment): 100.0 ±3.0 | Change in mouse weight ([2]; 5 Days after drug treatment): 97.2 ±2.5 | Change in mouse weight ([2]; 7 Days after drug treatment): 99.5 ±3.5 | Change in mouse weight ([2]; 9 Days after drug treatment): 105.7 ±7.0 | Change in mouse weight ([2]; 12 Days after drug treatment): 101.0 ±6.2 | Change in mouse weight ([2]; 14 Days after drug treatment): 101.8 ±5.5 | Change in mouse weight ([2]; 16 Days after drug treatment): 103.9 ±5.8 | Change in mouse weight ([2]; 19 Days after drug treatment): 101.1 ±5.8 | Change in mouse weight ([2]; 21 Days after drug treatment): 102.9 ±6.0 | Change in mouse weight ([2]; 23 Days after drug treatment): 105.0 ±7.1
Structure (SMILES): C/C=C(/C)C(=O)O[C@@H]1C[C@H](C)[C@H]2CC(=O)C(C)=C2C[C@@H]1C(C)(C)OC(C)=O [Torilin, torilin, reference compound]
difference in body weight according to the administration of the drugs [1]: almost no difference in body weight | difference in body weight according to the administration of the drugs [2]: almost no difference in body weight | Tumor size increase (Vt−V0) [3, 11]: 0.0±0.0 | Tumor size increase (Vt−V0) [3, 12]: 54.7±16.2 | Inhibition rate (tumor size increase) [3, 13]: 17.4% | Tumor size increase (Vt−V0) [3, 14]: 151.4±33.3 | Inhibition rate (tumor size increase) [3, 15]: 16.3% | Tumor size increase (Vt−V0) [3, 16]: 362.7±59.4 | Inhibition rate (tumor size increase) [3, 17]: 18.9% | Tumor size increase (Vt−V0) [3, 18]: 565.9±142.4 | Inhibition rate (tumor size increase) [3, 19]: 19.1% | Tumor size increase (Vt−V0) [3, 20]: 816.9±248.1 | Inhibition rate (tumor size increase) [3, 21]: 20.6% | Tumor size increase (Vt−V0) [3, 22]: 1086.2±458.4 | Inhibition rate (tumor size increase) [3, 23]: 21.2% | Tumor size increase (Vt−V0) [3, 24]: 1319.9±614.0 | Inhibition rate (tumor size increase) [3, 25]: 26.5% | Tumor size increase (Vt−V0) [3, 26]: 1555.6±640.5 | Inhibition rate (tumor size increase) [3, 27]: 24.0% | Tumor weight at Day 21 [3, 28]: 2.85 ± 0.834 g | Tumor weight reduction rate compared to control group [3, 28]: 25.9% | Tumor size increase (Vt−V0) [3, 29]: 1973.3±821.1 | Inhibition rate (tumor size increase) [3, 30]: 25.2% | tumor size compared to the control group ([3]; intraperitoneal): statistically significantly smaller

Change in mouse weight ([1]; 0 Day after drug treatment): 100.0 ±0.0 | Change in mouse weight ([1]; 2 Days after drug treatment): 98.2 ±1.0 | Change in mouse weight ([1]; 5 Days after drug treatment): 94.7 ±2.5 | Change in mouse weight ([1]; 7 Days after drug treatment): 94.1 ±2.2 | Change in mouse weight ([1]; 9 Days after drug treatment): 99.7 ±2.7 | Change in mouse weight ([1]; 12 Days after drug treatment): 96.7 ±3.1 | Change in mouse weight ([1]; 14 Days after drug treatment): 97.3 ±2.8 | Change in mouse weight ([1]; 16 Days after drug treatment): 100.2 ±1.8 | Change in mouse weight ([1]; 19 Days after drug treatment): 98.3 ±2.9 | Change in mouse weight ([1]; 21 Days after drug treatment): 99.4 ±1.6 | Change in mouse weight ([1]; 23 Days after drug treatment): 100.2 ±2.6 | Change in mouse weight ([2]; 0 Day after drug treatment): 100.0 ±0.0 | Change in mouse weight ([2]; 2 Days after drug treatment): 95.6 ±1.7 | Change in mouse weight ([2]; 5 Days after drug treatment): 96.9 ±1.8 | Change in mouse weight ([2]; 7 Days after drug treatment): 99.5 ±1.5 | Change in mouse weight ([2]; 9 Days after drug treatment): 102.3 ±2.8 | Change in mouse weight ([2]; 12 Days after drug treatment): 98.6 ±1.5 | Change in mouse weight ([2]; 14 Days after drug treatment): 100.7 ±3.6 | Change in mouse weight ([2]; 16 Days after drug treatment): 102.5 ±3.8 | Change in mouse weight ([2]; 19 Days after drug treatment): 103.6 ±5.5 | Change in mouse weight ([2]; 21 Days after drug treatment): 102.9 ±5.7 | Change in mouse weight ([2]; 23 Days after drug treatment): 104.7 ±5.6
Structure (SMILES): CC(=O)OC(C)(C)C1CC2=C(C)C(=O)CC2C(C)CC1OC(=O)CC(C)C (stereo not drawn) [Tr-9]
difference in body weight according to the administration of the drugs [1]: almost no difference in body weight | difference in body weight according to the administration of the drugs [2]: almost no difference in body weight | cell viability [4]: decreases the cell viability | cell viability [5]: decreases the cell viability | cell viability [6]: decreases the cell viability | cell viability [7]: decreases the cell viability | cell viability of human fibroblast [8]: little change in the cell viability | tumor size further reduced compared to the group intraperitoneally administered with the torilin ([3]; intraperitoneal): about 10% | Tumor size increase (Vt−V0) [3, 11]: 0.0±0.0 | Tumor size increase (Vt−V0) [3, 12]: 53.1±17.9 | Inhibition rate (tumor size increase) [3, 13]: 19.8% | Tumor size increase (Vt−V0) [3, 14]: 139.4±40.3 | Inhibition rate (tumor size increase) [3, 15]: 22.9% | Tumor size increase (Vt−V0) [3, 16]: 312.6±71.9 | Inhibition rate (tumor size increase) [3, 17]: 30.1% | Tumor size increase (Vt−V0) [3, 18]: 453.9±112.5 | Inhibition rate (tumor size increase) [3, 19]: 35.1% | Tumor size increase (Vt−V0) [3, 20]: 648.7±112.0 | Inhibition rate (tumor size increase) [3, 21]: 37.0% | Tumor size increase (Vt−V0) [3, 22]: 849.8±110.2 | Inhibition rate (tumor size increase) [3, 23]: 38.3% | Tumor size increase (Vt−V0) [3, 24]: 1075.9±155.6 | Inhibition rate (tumor size increase) [3, 25]: 40.1% | Tumor size increase (Vt−V0) [3, 26]: 1326.9±216.2 | Inhibition rate (tumor size increase) [3, 27]: 35.2% | Tumor weight at Day 21 [3, 28]: 2.48 ± 0.308 g | Tumor size increase (Vt−V0) [3, 29]: 1690.3±144.2 | Inhibition rate (tumor size increase) [3, 30]: 35.9% | tumor size compared to the control group ([3]; intraperitoneal): statistically significantly smaller | cell viability [9]: decreases the cell viability | cell viability [10]: decreases the cell viability

Reference: patent US20230107983A1, “COMPOUND ISOLATED FROM TORILIDIS FRUCTUS, AND ANTICANCER PHARMACEUTICAL COMPOSITION CONTAINING SAME AS ACTIVE INGREDIENT” (PHARMA-GENE CO., LTD., priority 2020, published 2023)
